Measured values from EP4721737A1, “USE OF PHARMACEUTICAL COMPOSITION COMPRISING COMPOUND HAVING BIS(AZANYLYLIDENE) SULFONYL STRUCTURE FOR TREATING ANEMIA-RELATED DISEASES” (Scinnohub Pharmaceutical Co., Ltd., priority 2023, dated 2024).

The compounds below were run against T1, PKR in ex vivo red blood cells from healthy individuals (Homo sapiens, UniProt P30613) (assay: ex vivo pyruvate kinase (PKR) activity experiment, red blood cells of healthy individuals). Conditions: 3 hours co-cultivation.
T1 construct: endogenous in cells; host or cells: human red blood cells isolated from fresh peripheral blood of healthy individuals
Format: cell-based
Experimental: To test the effects of the compound of the present disclosure on PKR activation in ex vivo red blood cells from healthy individuals and patients with thalassemia.
• i. 5 g of glucose, 85 mg of adenine, and 2.625 g of mannitol were weighed and added into a 50 mL centrifuge tube. 40 mL of PBS was added to dissolve (sonicate for 30 minutes until completely dissolved). The solution was filtered through a 0.22 µm filter, then added to 460 mL of sterile PBS and mixed thoroughly.
• i. Fresh human peripheral blood was collected. K2EDTA was used as the anticoagulant. 1 part anticoagulant with 9 parts blood was mixed, then centrifuged at 500 g for 10 minutes at room temperature to remove the plasma. • ii. Packed red blood cells: 1.5 volumes of PBS were added, then centrifuged at 2000 ×g for 5 minutes at room temperature. After centrifugation, the supernatant was removed. This step was repeated twice. • iii. Diluted red blood cells: 1.5 volumes of PBS were added, then resuspended and mixed thoroughly. • iv. The diluted red blood cells were slowly added to 0.5 volume of 70% isotonic solution (e.g., 7.5 mL of diluted red blood cells + 3 mL of 70% isotonic solution Percoll) and centrifuged at 4000 ×g for 20 minutes at 4°C. • v. The supernatant was removed. The red blood cells at the bottom were washed once with 4-5 mL of PBS to elute the Percoll gel, and then centrifuged at 2000 ×g for 5 minutes at room temperature. • vi. The supernatant was removed. The red blood cells were counted and then diluted in AGAM medium containing 10% FBS to a density of 2 × 10^8 cells/mL for storage at 4°C.
i. The red blood cells were seeded into a 96-well plate at a uniform density of 1 × 10^7 cells/mL, with 100 µL per well. The test compounds (dissolved in DMSO) were diluted and added to the cell culture medium, resulting in final compound concentrations of 3000, 1000, 300, 100, 10, 3, and 1 nM (with 1% DMSO). The cells and compounds were co-cultivated for 3 hours in a 37°C incubator with 5% CO2. Subsequently, the plate was centrifuged at 2000 g for 20 minutes, and the supernatant was discarded. 100 µL of red blood cell lysis buffer was added to the cell pellet, vortexed for 20 minutes, and centrifuged at 4000 g for 5 minutes. The supernatant was collected for analysis. ii. The reaction system was prepared according to the kit instructions (shown as the table below), 10 µL of the reaction system was added to each well of a 384-well plate, and 10 µL of red blood cell lysis buffer was took and mixed well (20 µL reaction system).
iii. A black, transparent-bottomed 384-well plate was placed in a microplate reader to measure fluorescence at 540/590 nm. The fluorescence was read every 2 minutes for 1 hour.
i. The Slope value was calculated over the assay time. Compound activation percentage was calculated using the 1% DMSO well as the control well. Activation percentage = (Slope of compound well / Slope of control well) × 100% ii. Dose-response curve was fit using the logarithmic compound concentration on the X-axis and the percent activation percentage on the Y-axis, the log(agonist) vs. response - variable slope function in GraphPad Prism 5 was used to determine the AC50 value for each compound on PKR activity. Y = min + (max−min)/(1+10^(∧)((LogAC50−X)×Hillslope)). [formula] The PKR agonist effects of the compound of the present disclosure on ex vivo red blood cells from healthy individuals and thalassemia patients were determined using the above assay. The AC50 values measured on ex vivo red blood cells from healthy individuals are as follows (A represents 0-100 nM, B represents 101-300 nM, and C represents 300-1000 nM): […]

T1 sequence (P30613 whole entry): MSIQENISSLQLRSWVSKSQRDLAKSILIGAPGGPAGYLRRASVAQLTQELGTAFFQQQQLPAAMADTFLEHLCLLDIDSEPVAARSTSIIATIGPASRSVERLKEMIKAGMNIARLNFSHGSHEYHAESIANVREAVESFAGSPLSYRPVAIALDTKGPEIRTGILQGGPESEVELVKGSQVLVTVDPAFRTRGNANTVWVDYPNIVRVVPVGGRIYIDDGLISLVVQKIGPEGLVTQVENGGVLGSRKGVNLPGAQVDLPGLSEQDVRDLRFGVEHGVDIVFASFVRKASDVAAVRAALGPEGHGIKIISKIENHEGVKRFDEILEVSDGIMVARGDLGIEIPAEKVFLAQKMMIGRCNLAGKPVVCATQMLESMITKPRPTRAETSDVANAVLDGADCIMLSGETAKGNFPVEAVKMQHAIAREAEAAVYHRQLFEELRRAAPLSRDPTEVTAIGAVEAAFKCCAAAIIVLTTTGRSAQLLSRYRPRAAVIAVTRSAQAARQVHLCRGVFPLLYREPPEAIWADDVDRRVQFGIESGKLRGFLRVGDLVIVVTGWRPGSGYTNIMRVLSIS

Row | AC50 | SMILES
1 | 0.101 to 0.3 µM | O=C([C@H](CO)c1ccccc1)N1CC(=C2CN(S(=O)(=O)c3cnc4c(c3)OCCO4)C2)C1 [Compound 1, (S)-1-(1'-((2,3-dihydro-[1,4]dioxino[2,3-b]pyridin-7-yl)sulfonyl)-1',4'-dihydro-2H,2'H-[3,3'-diazetidinylidene]-1(4H)-yl)-3-hydroxy-2-phenylpropan-1-one]
2 | 0.3 to 1 µM | O=C([C@H](CO)c1ccccc1)N1CC(=C2CN(S(=O)(=O)c3ccc4c(c3)OCCO4)C2)C1 [Compound 2, (S) -1-(1'-((2,3-dihydrobenzo[b][1,4]dioxin-6-yl)sulfonyl)-1',4'-dihydro-2H,2'H-[3,3'-diazetidinylidene]-1(4H)-yl)-3-hydroxy-2-phenylpropan-1-one]
3 | 0.101 to 0.3 µM | O=C([C@H](CO)c1ccccc1)N1CC(=C2CN(S(=O)(=O)c3ccc4ncsc4c3)C2)C1 [Compound 3, (S)-1-(1'-(benzo[d]thiazol-6-ylsulfonyl)-1',4'-dihydro-2H,2'H-[3,3'-diazetidinylidene]-1(4H)-yl)-3-hy droxy-2-phenylpropan-1-one]
4 | < 0.1 µM | O=C([C@H](CO)c1ccccc1)N1CC(=C2CN(S(=O)(=O)c3ccccn3)C2)C1 [Compound 4, (S)-3-hydroxy-2-phenyl-1-(1'-(pyridin-2-ylsulfonyl)-1',4'-dihydro-2H,2'H-[3.3'-diazetidinylidene]-1(4H)-yl)propan-1-one]
5 | 0.101 to 0.3 µM | COc1ccc(S(=O)(=O)N2CC(=C3CN(C(=O)[C@H](CO)c4ccccc4)C3)C2)cc1 [Compound 5, (S)-3-hydroxy-1-(1'-((4-methoxyphenyl)sulfonyl)-1',4'-dihydro-2H,2'H-[3,3'-diazetidinylidene]-1(4H )-yl)-2-phenylpropan-1-one]
6 | < 0.1 µM | O=C([C@H](CO)c1ccccc1)N1CC(=C2CN(S(=O)(=O)c3ccc(OC(F)F)cc3)C2)C1 [Compound 7, (S)-1-(1'-((4-(difluoromethoxy)phenyl)sulfonyl)-1',4'-dihydro-2H,2'H-[3,3'-diazetidinylidene]-1(4H)-yl)-3-hydroxy-2-phenylpropan-1-one]
7 | < 0.1 µM | O=C([C@H](CO)c1ccccc1)N1CC(=C2CN(S(=O)(=O)c3ccc(OC(F)(F)F)cc3)C2)C1 [Compound 9, (S)-3-hydroxy-2-phenyl-1-(1'-((4-(trifluoromethoxy)phenyl)sulfonyl)-1',4'-dihydro-2H,2'H-[3,3'-diazetidinylidene]-1(4H)-yl)propan-1-one]
8 | < 0.1 µM | O=C([C@H](CO)c1ccccc1)N1CC(=C2CN(S(=O)(=O)c3ccc(F)cc3)C2)C1 [Compound 10]
9 | < 0.1 µM | O=C([C@H](CO)c1ccccc1)N1CC(=C2CN(S(=O)(=O)c3ccc(OC(F)F)c(F)c3)C2)C1 [Compound 11]
10 | 0.3 to 1 µM | O=C([C@H](CO)c1ccccc1)N1CC(=C2CN(S(=O)(=O)c3ccc4c(c3)NCCO4)C2)C1 [Compound 12, (S)-1-(1'-((3,4-dihydro-2H-benzo[b][1,4]oxazin-6-yl)sulfonyl)-1',4'-dihydro-2H,2'H-[3,3'-diazetidinylidene]-1(4H)-yl)-3-hydroxy-2-phenylpropan-1-one]
11 | < 0.1 µM | O=C(C(CO)c1ccc(F)cc1)N1CC(=C2CN(S(=O)(=O)c3ccc(OC(F)F)cc3)C2)C1 (stereo not drawn) [Compound 16, 1-(1'-((4-(difluoromethoxy)phenyl)sulfonyl)-1',4'-dihydro-2H,2'H-[3,3'-diazetidinylidene]-1(4H)-yl)-2-(4-fluorophenyl)-3-hydroxypropan-1-one]
12 | 0.3 to 1 µM | O=C([C@H](CO)c1ccccc1)N1CC(=C2CN(S(=O)(=O)c3cc(F)c4c(c3)OCCO4)C2)C1 [Compound 20, (S)-1-(1'-((8-fluoro-2,3-dihydrobenzo[b][1,4]dioxin-6-yl)sulfonyl)-1',4'-dihydro-2H,2'H-[3,3'-diazetidinylidene]-1(4H)-yl)-3-hydroxy-2-phenylpropan-1-one]
13 | < 0.1 µM | NC(C(=O)N1CC(=C2CN(S(=O)(=O)c3ccc(OC(F)F)cc3)C2)C1)c1ccc(F)cc1 (stereo not drawn) [Compound 22, 2-amino-1-(1'-((4-(difluoromethoxy)phenyl)sulfonyl)-1',4'-dihydro-2H,2'H-[3,3'-diazetidinylidene]-1 (4H)-yl)-2-(4-fluorophenyl)ethan-1-one]
14 | 0.3 to 1 µM | O=C([C@H](CO)c1ccc(F)cc1)N1CC(=C2CN(S(=O)(=O)c3ccc4ncsc4c3)C2)C1 [Compound 25, (S)-1-(1'-(benzo[d]thiazol-6-ylsulfonyl)-1',4'-dihydro-2H,2'H-[3,3'-diazetidinylidene]-1(4H)-yl)-2-(4-fluorophenyl)-3-hydroxypropan-1-one]
15 | < 0.1 µM | O=C(C(CO)c1ccc(F)cc1)N1CC(=C2CN(S(=O)(=O)c3ccc4c(c3)OC(F)(F)O4)C2)C1 (stereo not drawn) [Compound 36, 1-(1'-((2,2-difluorobenzo[d][1,3]dioxolan-5-yl)sulfonyl)-1',4'-dihydro-2H,2'H-[3,3'-diazetidinylidene]-1(4H)-yl)-2-(4-fluorophenyl)-3-hydroxypropan-1-one]
16 | 0.3 to 1 µM | O=C(N1CC(=C2CN(S(=O)(=O)c3ccc(OC(F)F)cc3)C2)C1)C1(c2ccccc2)CCOC1 (stereo not drawn) [Compound 37, (1'-((4-(difluoromethoxy)phenyl)sulfonyl)-1',4'-dihydro-2H,2'H-[3,3'-diazetidinylidene]-1(4H)-yl)(3-phenyltetrahydrofuran-3-yl)methanone]
17 | 0.3 to 1 µM | O=C1COc2ccc(S(=O)(=O)N3CC(=C4CN(C(=O)[C@H](CO)c5ccccc5)C4)C3)cc2N1 [Compound 40, (S)-6-((1'-(3-hydroxy-2-phenylpropionyl)-1',4'-dihydro-2H,2'H-[3,3'-diazetidinylidene]-1(4H)-yl)sulfonyl)-2H-benzo[b][1,4]oxazine-3(4H)-one]
18 | < 0.1 µM | CN1C(=O)COc2ccc(S(=O)(=O)N3CC(=C4CN(C(=O)[C@H](CO)c5ccccc5)C4)C3)cc21 [Compound 41, (S)-6-((1'-(3-hydroxy-2-phenylpropionyl)-1',4'-dihydro-2H,2'H-[3,3'-diazetidinylidene]-1(4H)-yl)sulfonyl)-4-methyl-2H-benzo[b][1,4]oxazine-3(4H)-one]
19 | 0.101 to 0.3 µM | CN1CCN(c2cccc(C(O)C(=O)N3CC(=C4CN(S(=O)(=O)c5ccc6ncsc6c5)C4)C3)c2)CC1 (stereo not drawn) [Compound 43, 1-(1'-(benzo[d]thiazol-6-ylsulfonyl)-1',4'-dihydro-2H,2'H-[3,3'-diazetidinylidene]-1(4H)-yl)-2-hydroxy-2-(3-(4-methylpiperazin-1-yl)phenyl)ethan-1-one]
20 | 0.3 to 1 µM | O=C(C(CO)c1cccnc1)N1CC(=C2CN(S(=O)(=O)c3ccc4ncsc4c3)C2)C1 (stereo not drawn) [Compound 48, 1-(1'-(benzo[d]thiazol-6-ylsulfonyl)-1',4'-dihydro-2H,2'H-[3,3'-diazetidinylidene]-1(4H)-yl)-3-hydroxy-2-(pyridin-3-yl)propan-1-one]
21 | < 0.1 µM | O=C(C(CO)c1ccc(F)c(Cl)c1)N1CC(=C2CN(S(=O)(=O)c3ccccn3)C2)C1 (stereo not drawn) [Compound 59, 2-(3-chloro-4-fluorophenyl)-3-hydroxy-1-(1'-(pyridin-2-ylsulfonyl)-1',4'-dihydro-2H,2'H-[3,3'-diazetidinylidene]-1(4H)-yl)propan-1-one]
22 | 0.101 to 0.3 µM | O=C(C(CO)c1ccc(F)c(F)c1)N1CC(=C2CN(S(=O)(=O)c3ccccn3)C2)C1 (stereo not drawn) [Compound 61, 2-(3,4-difluorophenyl)-3-hydroxy-1-(1'-(pyridin-2-ylsulfonyl)-1',4'-dihydro-2H,2'H-[3,3'-diazetidinylidene]-1(4H)-yl)propan-1-one]
23 | 0.3 to 1 µM | Cn1cnc2ccc(S(=O)(=O)N3CC(=C4CN(C(=O)[C@H](CO)c5ccccc5)C4)C3)cc21 [Compound 63, (S)-3-hydroxy-1-(1'-((1-methyl-1H-benzimidazol-6-yl)sulfonyl)-1',4'-dihydro-2H,2'H-[3,3'-diazetidinylidene]-1(4H)-yl)-2-phenylpropan-1-one]
24 | < 0.1 µM | O=C([C@H](CO)c1ccccc1)N1CC(=C2CN(S(=O)(=O)c3ccc(Cl)cn3)C2)C1 [Compound 66]
